The subject of the experiment is P. rhodozyma ATCC 96594. Description: Growth of P. rhodozyma colonies on SHAM-containing YPD-agar. In kind it is cell-based, Phaffia rhodozyma. Conditions: 3 day-cultivation at 20° C.; for Relative colony diameter (%): relative to control colonies without SHAM. On the procedure: To examine the effects of the inhibition of KCN-resistant respiration mediated by alternative oxidase on the growth of P. rhodozyma, SHAM was added to a culture of P. rhodozyma on YPD-agar medium. SHAM was dissolved in ethanol and added to the YPD-agar medium to give 0.05, 0.15, 0.30, 0.45 and 0.90 mg/ml as a final concentration. After dilution, 2×10^7 cells/ml of P. rhodozyma ATCC 96594 were spread on the media. After a 3 day-cultivation at 20° C., colonies were counted. […] However, the colonies that grew on SHAM-containing media were smaller than the colonies that grew on the control media.

The structures appear in SMILES notation.

Take `O=C(NO)c1ccccc1O` [SHAM, Salicylhydroxamic acid]: the “Relative colony diameter (%)” value came to 100% (SHAM 0.05 mg/ml in YPD-agar); 70% (SHAM 0.15 mg/ml in YPD-agar); 40% (SHAM 0.30 mg/ml in YPD-agar); 30% (SHAM 0.45 mg/ml in YPD-agar); 12% (SHAM 0.90 mg/ml in YPD-agar). The “Number of colonies that grew on SHAM-containing YPD agar” value (SHAM 0.05-0.90 mg/ml, compared with control medium without SHAM) is “almost the same as that on control medium”.
